These results are taken from PubChem BioAssay (NCI).

Test systems include BT-549 breast; 786-0 renal; U251 CNS; RXF 393 renal; SF-295 CNS; SNB-19 CNS; KM12 colon; RPMI-8226 leukemia; COLO 205 colon; UO-31 renal.
What all share (experiment): NCI anticancer screen, dose series, 48 h

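How tested: cells in 96-well plates exposed to compound for 48 hours at five concentrations. Abbreviation: GI50, concentration required for 50% inhibition of growth. The concentration for full growth arrest is given as TGI.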

For `O=[N+]([O-])c1cc(F)c2cccnc2c1O`, the GI50 in the experiment with BT-549 breast was 19 µM; in the experiment with 786-0 renal, 10.2 µM; in the experiment with U251 CNS it was 4.9 µM; in the experiment on RXF 393 renal, 17.5 µM; with SF-295 CNS, 3.77 µM; in the experiment with SNB-19 CNS, 9.24 µM. Further, the GI50 in the experiment on KM12 colon is 7.95 µM; in the experiment with RPMI-8226 leukemia, 4.05 µM; in the experiment with COLO 205 colon, 16.2 µM; in the experiment on UO-31 renal, 2.34 µM. Moreover, the TGI in the experiment on BT-549 breast was > 100 µM; with 786-0 renal it was 94.6 µM; in the experiment on U251 CNS it was 90.3 µM; with RXF 393 renal, 76.3 µM; with SF-295 CNS, 86.6 µM; in the experiment with SNB-19 CNS it was > 100 µM. The TGI in the experiment with KM12 colon was > 100 µM; in the experiment on RPMI-8226 leukemia, 24.3 µM; in the experiment with COLO 205 colon, 54.2 µM; in the experiment on UO-31 renal, 18.2 µM.
Consider `COc1ccc(NC(=O)/C=C(C)/C=C/C=C(C)\C=C\C2=C(C)CCCC2(C)C)cc1`, for which the GI50 is > 100 µM in the experiment on BT-549 breast; 90.3 µM in the experiment on 786-0 renal; > 100 µM in the experiment on U251 CNS; 25.5 µM in the experiment with RXF 393 renal; 35.7 µM with SF-295 CNS; > 100 µM in the experiment on SNB-19 CNS. For the same compound, the GI50 in the experiment with KM12 colon was 62.8 µM; in the experiment on RPMI-8226 leukemia it was 1.71 µM; in the experiment on COLO 205 colon, 75.9 µM; in the experiment with UO-31 renal it was > 100 µM. Moreover, the TGI with BT-549 breast is > 100 µM; in the experiment on 786-0 renal, > 100 µM; in the experiment on U251 CNS, > 100 µM; in the experiment on RXF 393 renal it was 76.1 µM; in the experiment with SF-295 CNS, > 100 µM; in the experiment with SNB-19 CNS it was > 100 µM. The TGI in the experiment with KM12 colon was > 100 µM; in the experiment on RPMI-8226 leukemia, 64.4 µM; in the experiment on COLO 205 colon it was > 100 µM; with UO-31 renal, > 100 µM.
In the case of `C1CC[N-]CC1.CC(=N\O)/C(C)=N/O.CC(=N\O)/C(C)=N/O.[CH2-]CCN1CCOCC1.[Co+2]`, the GI50 in the experiment with BT-549 breast, in the experiment with 786-0 renal, in the experiment with U251 CNS, in the experiment on RXF 393 renal, in the experiment with SF-295 CNS and with SNB-19 CNS was > 100 µM in each case. Further, the GI50 with KM12 colon, in the experiment with RPMI-8226 leukemia, in the experiment with COLO 205 colon and in the experiment with UO-31 renal was > 100 µM in each case. The TGI with BT-549 breast, with 786-0 renal, in the experiment on U251 CNS, with RXF 393 renal, with SF-295 CNS and in the experiment with SNB-19 CNS was > 100 µM throughout. In addition, the TGI in the experiment on KM12 colon, in the experiment on RPMI-8226 leukemia, in the experiment on COLO 205 colon and in the experiment with UO-31 renal was > 100 µM each time.
On to `ClCC#CCSc1ncnc2c1ncn2CC#CCCl`, for which the GI50 with BT-549 breast is 1.61 µM; with 786-0 renal, 1.66 µM; in the experiment with U251 CNS, 1.32 µM; in the experiment with RXF 393 renal it was 1.01 µM; in the experiment with SF-295 CNS it was 2.05 µM; with SNB-19 CNS, 1.64 µM. The GI50 in the experiment on KM12 colon was 1.39 µM; with RPMI-8226 leukemia it was 2.03 µM; in the experiment with COLO 205 colon, 1.56 µM; in the experiment on UO-31 renal, 1.33 µM. Moreover, the TGI with BT-549 breast came out at 3.02 µM; in the experiment with 786-0 renal, 3.41 µM; in the experiment with U251 CNS, 3.04 µM; in the experiment on RXF 393 renal, 2.29 µM; in the experiment with SF-295 CNS, 4.59 µM; in the experiment with SNB-19 CNS, 3.61 µM. Further, the TGI with KM12 colon is 2.8 µM; with RPMI-8226 leukemia it was 6.38 µM; with COLO 205 colon, 3.03 µM; with UO-31 renal, 3.38 µM.
As to `OC(COc1cccc2ccccc12)CN1CCN(c2ccccc2Cl)CC1` (stereo not given), the GI50 in the experiment with BT-549 breast was 12.9 µM; in the experiment on 786-0 renal, 15.6 µM; in the experiment on U251 CNS, 17.1 µM; in the experiment on RXF 393 renal it was 16.5 µM; in the experiment with SF-295 CNS it was 11.9 µM; with SNB-19 CNS, 14.5 µM. Also, the GI50 was 11.8 µM in the experiment with KM12 colon, 13.2 µM with RPMI-8226 leukemia, 11.9 µM in the experiment on COLO 205 colon and 4.17 µM in the experiment with UO-31 renal. Besides, the TGI was found to be 26.3 µM in the experiment on BT-549 breast; 30.4 µM in the experiment with 786-0 renal; 31.6 µM with U251 CNS; 30.8 µM in the experiment with RXF 393 renal; 26.9 µM in the experiment on SF-295 CNS; 30.2 µM in the experiment on SNB-19 CNS. The TGI in the experiment on KM12 colon worked out at 25.9 µM; in the experiment on RPMI-8226 leukemia it was 38.3 µM; with COLO 205 colon, 25 µM; in the experiment with UO-31 renal, 18.7 µM.
In the case of `CCOC(=O)c1ccccc1-c1c2ccc(=[N+](C)C)cc-2oc2cc(N(C)C)ccc12`, the GI50 with BT-549 breast is 0.178 µM; with 786-0 renal, 0.94 µM; in the experiment on U251 CNS it was 0.128 µM; in the experiment with RXF 393 renal, 0.692 µM; with SF-295 CNS, 0.278 µM; in the experiment on SNB-19 CNS it was 0.103 µM. The GI50 with KM12 colon is 0.196 µM; with RPMI-8226 leukemia, 0.082 µM; in the experiment on COLO 205 colon, 0.143 µM; in the experiment with UO-31 renal, 2.18 µM. Moreover, the TGI in the experiment on BT-549 breast is 2.77 µM; with 786-0 renal it was > 36.5 µM; in the experiment on U251 CNS, > 35.7 µM; with RXF 393 renal, 7.58 µM; with SF-295 CNS, 1.62 µM; in the experiment on SNB-19 CNS it was 16.7 µM. Further, the TGI with KM12 colon came to 10.9 µM; in the experiment on RPMI-8226 leukemia it was 4.96 µM; in the experiment with COLO 205 colon it was 0.43 µM; in the experiment on UO-31 renal, 8.1 µM.
For `CCc1nc(-n2c(-c3ccccc3)nc3ccccc3c2=O)nc(N)c1-c1ccc(Cl)cc1`, the GI50 was 90.7 µM in the experiment on BT-549 breast; 5.64 µM with 786-0 renal; 9.19 µM in the experiment with U251 CNS; > 100 µM in the experiment with RXF 393 renal; 2.26 µM with SF-295 CNS; 6.46 µM in the experiment on SNB-19 CNS. Further, the GI50 is 26.6 µM with KM12 colon, 50.3 µM in the experiment on RPMI-8226 leukemia, 14.2 µM in the experiment with COLO 205 colon and 48.6 µM in the experiment with UO-31 renal. Further, the TGI in the experiment with BT-549 breast was > 100 µM; in the experiment with 786-0 renal, > 100 µM; in the experiment with U251 CNS, > 100 µM; in the experiment with RXF 393 renal, > 100 µM; in the experiment on SF-295 CNS, 20.2 µM; with SNB-19 CNS it was > 100 µM. The TGI in the experiment on KM12 colon, in the experiment on RPMI-8226 leukemia, in the experiment with COLO 205 colon and in the experiment on UO-31 renal was > 100 µM in each case.
